From publication PMC5069690, “Hepatic 3D spheroid models for the detection and study of compounds with cholestatic liability” (Scientific Reports, 2016)
Values joined by “and” are separate entries in the source; they are usually repeats but may differ in a detail not shown here. Equal entries are not always repeated. Where two headings read alike, the source gives them in different places.

Legend:
[1] = tested on: HepaRG spheroids; assay: Repeated-exposure toxicity in HepaRG spheroids with or without BA mixture, cellular ATP content; type: cell-based, human; conditions: for Cholestatic Index (EC50 (+BA) / EC50 (-BA)) / CC50: ATP, one value per independent experiment; for CC50: Homo sapiens, HepaRG, compound alone, read-out: Without BA EC50
Method: Cryopreserved differentiated HepaRG cells (Biopredic International, France) were thawed according to the supplier’s instructions. The cells were seeded in Williams’ medium E with GlutaMAX^TM containing the thaw, seed and general purpose additive (ADD670; Biopredic International). The cells were seeded at a density of 2,000 viable cells per well in ULA plates. From day 5, the spheroids were maintained in medium containing 0.5% DMSO, the serum-free induction additive (ADD650, Biopredic International), 20 ng/ml epidermal growth factor and 10 ng/ml hepatocyte growth factor (HumaXpress, Nordic BioSite, Sweden).
(§1) Toxicity studies were started at day 8 and day 5 for PHH and HepaRG spheroids, respectively.

[2] = tested on: multi-donor PHH spheroids; assay: Repeated-exposure toxicity in multi-donor PHH spheroids with or without BA mixture, albumin secretion; type: cell-based, human; conditions: for EC50: Homo sapiens, 336 h, 14 days repeated exposure
Method: The cells were seeded in PHH medium (Williams’ medium E containing 100 units/ml penicillin, 100 μg/ml streptomycin, 2 mM L-glutamine, 10 μg/ml insulin, 5.5 μg/ml transferrin, 6.7 ng/ml sodium selenite, 100 nM dexamethasone) supplemented with 10% fetal bovine serum. […] When PHH had reassembled into compact aggregates (day 4–6 after seeding), spheroids were shifted to serum-free PHH medium. […] The spheroids were maintained in serum-free PHH medium.
as §1

[3] = tested on: PHH spheroids; assay: Bile acid accumulation (fluorescent taurocholic acid derivative, confocal microscopy) in PHH spheroids; type: cell-based, human; conditions: repeated exposure for 8 days
Method: (§2) BA accumulation was assessed with a fluorescently labelled taurocholic acid derivative, tauro-nor-THCA-25-DBD (Genomembrane Company, Ltd, Japan). After 6 days of chlorpromazine exposure, the spheroids were co-exposed to chlorpromazine and 20 μM tauro-nor-THCA-25-DBD for an additional 2 days. Fluorescence was assessed by confocal microscopy (Zeiss LSM 710).

[4] = tested on: HepaRG spheroids; assay: Bile acid accumulation (fluorescent taurocholic acid derivative, confocal microscopy) in HepaRG spheroids; type: cell-based, human
Method: as §2

[5] = tested on: ABCB11, SRXN1, NFE2L2, DR5 expression in PHH spheroids; assay: RT-qPCR gene expression in PHH spheroids; type: cell-based, human; conditions: 8 days
Method: (§3) Total RNA was extracted using Qiazol according to the manufacturer’s protocol. RNA was reverse-transcribed into cDNA with SuperScript III reverse transcriptase. RT-qPCR analysis was performed with a 7500 Fast Real-Time PCR system using a TaqMan Universal or SYBR Green mix.

[6] = tested on: ABCB11, SRXN1, NFE2L2, DR5 expression in HepaRG spheroids; assay: RT-qPCR gene expression in HepaRG spheroids; type: cell-based, human; conditions: 8 days
Method: as §3

[7] = tested on: F-actin cytoskeleton in PHH spheroids; assay: F-actin cytoskeleton integrity (Phalloidin staining) in PHH spheroids; type: cell-based, human; conditions: 8 days
Method: (§4) Spheroids were fixed in 4% paraformaldehyde at 4 °C O/N. Immunohistochemistry was performed on cryosections (8 μm) for BSEP (Atlas, Sweden) and MRP2 (Abcam, UK). […] F-actin was visualized using Alexa Fluor 488 Phalloidin. Slides were mounted with ProLong Gold Antifade Mountant with DAPI and fluorescence was assessed by confocal microscopy (Zeiss LSM 710). Surface expression of the BA transporters was quantified using CellProfiler software.

[8] = tested on: F-actin cytoskeleton in HepaRG spheroids; assay: F-actin cytoskeleton integrity (Phalloidin staining) in HepaRG spheroids; type: cell-based, human; conditions: 8 days
Method: as §4

[9] = tested on: BSEP; conditions: quoted in the discussion, no reference given; read-out: BSEP inhibition IC50; cited from earlier work
[10] = tested on: PHH spheroids; assay: Repeated-exposure toxicity in PHH spheroids with or without BA mixture, cellular ATP content;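 on all read-outs here: primary human hepatocyte spheroids dosed every second day with compound, with or without a bile acid mixture, viability read as cellular ATP by luminescence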; conditions: for CC50: Homo sapiens; for CC50 / Cholestatic Index (EC50 (+BA) / EC50 (-BA)): one value per independent experiment; for Cholestatic risk classification based on CIx / CIx (mean of the independent experiments) / Cholestatic Index (EC50 (+BA) / EC50 (-BA)) / CIx: PHH spheroids; for CIx (mean of the independent experiments): 8 days co-exposure with BAs vs compound alone; for Cholestatic Index (EC50 (+BA) / EC50 (-BA)): ATP; for CIx: cellular ATP content read-out, Supplementary Fig. S2A
Method: Cryopreserved PHH (Bioreclamation IVT, USA) were thawed according to the supplier’s instructions. The cells were seeded in PHH medium (Williams’ medium E containing 100 units/ml penicillin, 100 μg/ml streptomycin, 2 mM L-glutamine, 10 μg/ml insulin, 5.5 μg/ml transferrin, 6.7 ng/ml sodium selenite, 100 nM dexamethasone) supplemented with 10% fetal bovine serum. The cells were seeded at a density of 1,500 viable cells per well in ultra-low attachment (ULA) plates (Corning). When PHH had reassembled into compact aggregates (day 4–6 after seeding), spheroids were shifted to serum-free PHH medium. […] The hepatocytes were derived from 5 male and 5 female donors and were aggregated into 3D microtissues in GravityPLUS™ hanging drop plates and cultivated and assayed in GravityTRAP™ plates. The spheroids were maintained in serum-free PHH medium.
(§5) Stock solutions of the compounds were diluted in culture medium to a maximal final DMSO concentration of 0.3% for PHH spheroids and 0.6% for HepaRG spheroids. Toxicity studies were started at day 8 and day 5 for PHH and HepaRG spheroids, respectively. Spheroids were treated every other day with the compounds in the presence or absence of the BA mixture. Cellular ATP content was determined as a marker of cell viability using the CellTiter-Glo Luminescent Cell Viability Assay (Promega, Sweden). When indicated, albumin concentrations were determined by ELISA (Bethyl laboratories, USA).
(§6) To evaluate the cholestatic risk of the tested compounds we introduced the cholestatic index (CIx). The CIx is defined as the ratio between the EC50-value from co-exposure to a compound and the BA mixture and the EC50-value from exposure to the compound alone.

[11] = tested on: PHH spheroids; assay: Toxicity in PHH spheroids with or without BA mixture, albumin secretion read-out (Supplementary Fig. S2); conditions: 8 days, Supplementary Fig. S2B
Method: as §5, §6

[12] = 8 days co-exposure with BAs vs compound alone
[13] = 192 h, 8 days repeated exposure
[14] = 336 h, 14 days repeated exposure
[15] = multi-donor PHH spheroids (10 donors), co-exposure with BA mixture, albumin secretion, read-out: With BA EC50
[16] = multi-donor PHH spheroids (10 donors), compound alone, albumin secretion, read-out: Without BA EC50
[17] = co-exposure with non-toxic BA mixture compared to compound or BAs alone
[18] = 192 h, read-out: Without BA EC50, PHH spheroids, 8 days repeated exposure, compound alone, ATP
[19] = 336 h, read-out: Without BA EC50, PHH spheroids, 14 days repeated exposure, compound alone, ATP

Row | Structure (SMILES) | Cholestatic risk classification based on CIx ([1]; 8 days) | CIx (mean of the independent experiments) [1, 12] | Cholestatic Index (EC50 (+BA) / EC50 (-BA)) ([1]; 8 days) | Cholestatic risk classification based on CIx ([1]; 14 days) | Cholestatic Index (EC50 (+BA) / EC50 (-BA)) ([1]; 14 days) | CC50 [1, 13] [µM] | CC50 [1, 14] [µM] | EC50 [2, 15] [µM] | EC50 [2, 16] [µM] | CC50 [10, 18] [µM] | CC50 [10, 19] [µM] | Cholestatic risk classification based on CIx ([10]; 8 days) | CIx (mean of the independent experiments) [10] | Cholestatic Index (EC50 (+BA) / EC50 (-BA)) ([10]; 8 days) | CIx ([10]; 8 days) | Cholestatic risk classification based on CIx ([10]; 14 days) | Cholestatic Index (EC50 (+BA) / EC50 (-BA)) ([10]; 14 days) | CIx [11] | other results
1 | CN(C)CCCN1c2ccccc2Sc2ccc(Cl)cc21 [Chlorpromazine, chlorpromazine] | low cholestatic risk (Compounds with a CIx ≥ 0.80) | 0.87 ± 0.06 | 0.88 and 0.81 and 0.93 | cholestatic risk (compounds with a CIx ≤ 0.80 were considered to have cholestatic risk) | 0.63 and 0.65 and 0.69 | 17 | 14 | 1.7 | 4.5 | 14 | 12 | low cholestatic risk (Compounds with a CIx ≥ 0.80) | 0.90 ± 0.12 | 0.85 and 1.07 and 0.83 | 0.75 | cholestatic risk (compounds with a CIx ≤ 0.80 were considered to have cholestatic risk) | 0.80 and 0.71 and 0.77 | 0.69 | CIx (mean of the independent experiments) ([1]; 14 days of repeated exposure): 0.66 ± 0.03; Cholestatic Index (EC50 (+BA) / EC50 (-BA)) ([2]; both, human, 14 days): 0.38; intracellular BA accumulation (tauro-nor-THCA-24-DBD) [3]: cytoplasmic accumulation; toxicity to the spheroids ([4]; 10 μM, 8 days): toxic; intracellular BA accumulation (tauro-nor-THCA-24-DBD) ([4]; repeated exposure for 8 days): cytoplasmic accumulation; DR5 expression [5, 17]: significantly induced DR5; NFE2L2 expression [5, 17]: significantly further increased NFE2L2 expression; SRXN1 expression [5, 17]: significant induction of SRXN1; expression of ABCB11, encoding BSEP ([5]; normalized to GAPDH): inhibited the expression of ABCB11; DR5 expression ([5]; toxic concentration alone (80x BA; 12.5 µM CPZ), Supplementary Fig. S3): no change in DR5 expression; DR5 expression [6, 17]: significantly induced DR5; NFE2L2 expression [6, 17]: significantly further increased NFE2L2 expression; SRXN1 expression [6, 17]: significant induction of SRXN1; expression of ABCB11, encoding BSEP ([6]; normalized to GAPDH): inhibited the expression of ABCB11; F-actin expression and integrity [7]: reduced F-actin expression and disrupted its integrity; F-actin expression and integrity [8]: reduced F-actin expression and disrupted its integrity; IC50 [9]: 148 µM
2 | CN(C)[C@@H]1C(O)=C(C(N)=O)C(=O)[C@@]2(O)C(O)=C3C(=O)c4c(O)cccc4[C@@](C)(O)[C@H]3C[C@@H]12 [Tetracycline, tetracycline] | low cholestatic risk (Compounds with a CIx ≥ 0.80) | 1.05 ± 0.12 | 0.91 and 1.13 and 1.12 | low cholestatic risk (Compounds with a CIx ≥ 0.80) | 0.95 and 1.18 and 1.16 | 242 | 121 | 123 | 120 | 116 | 74 | low cholestatic risk (Compounds with a CIx ≥ 0.80) | 1.00 ± 0.08 | 1.01 and 0.91 and 1.07 | 0.87 | low cholestatic risk (Compounds with a CIx ≥ 0.80) | 1.41 and 1.07 and 0.94 | 1.08 | Cholestatic Index (EC50 (+BA) / EC50 (-BA)) ([2]; multi-donor PHH spheroids (10 donors), 14 days, albumin secretion): 1.03; Cholestatic risk classification based on CIx ([2]; multi-donor PHH spheroids, 14 days): low cholestatic risk (Compounds with a CIx ≥ 0.80)
